Values of other authors, collected in patent US9468651B1, “Method of removing moles” (priority 2009, dated 2016).

Details: property of the ingredient stated with a literature reference (Merck Index; Concise Encyclopedia of Chemical Technology)

For `[K+].[OH-]` [Potassium hydroxide], the PH value is listed as 13.5.
